Experimental data: ChEMBL document CHEMBL2074248, “Regulation of biliary drug efflux pump expression by hormones and xenobiotics” (Toxicology, 2001)

What was measured:
Bile salt export pump [1] = target: T1, Bile salt export pump (Rattus norvegicus, UniProt O70127); test: TP_TRANSPORTER: Northern blot in vivo rat; assay type: functional, organism-based, Liver
T1 sequence (O70127 whole entry): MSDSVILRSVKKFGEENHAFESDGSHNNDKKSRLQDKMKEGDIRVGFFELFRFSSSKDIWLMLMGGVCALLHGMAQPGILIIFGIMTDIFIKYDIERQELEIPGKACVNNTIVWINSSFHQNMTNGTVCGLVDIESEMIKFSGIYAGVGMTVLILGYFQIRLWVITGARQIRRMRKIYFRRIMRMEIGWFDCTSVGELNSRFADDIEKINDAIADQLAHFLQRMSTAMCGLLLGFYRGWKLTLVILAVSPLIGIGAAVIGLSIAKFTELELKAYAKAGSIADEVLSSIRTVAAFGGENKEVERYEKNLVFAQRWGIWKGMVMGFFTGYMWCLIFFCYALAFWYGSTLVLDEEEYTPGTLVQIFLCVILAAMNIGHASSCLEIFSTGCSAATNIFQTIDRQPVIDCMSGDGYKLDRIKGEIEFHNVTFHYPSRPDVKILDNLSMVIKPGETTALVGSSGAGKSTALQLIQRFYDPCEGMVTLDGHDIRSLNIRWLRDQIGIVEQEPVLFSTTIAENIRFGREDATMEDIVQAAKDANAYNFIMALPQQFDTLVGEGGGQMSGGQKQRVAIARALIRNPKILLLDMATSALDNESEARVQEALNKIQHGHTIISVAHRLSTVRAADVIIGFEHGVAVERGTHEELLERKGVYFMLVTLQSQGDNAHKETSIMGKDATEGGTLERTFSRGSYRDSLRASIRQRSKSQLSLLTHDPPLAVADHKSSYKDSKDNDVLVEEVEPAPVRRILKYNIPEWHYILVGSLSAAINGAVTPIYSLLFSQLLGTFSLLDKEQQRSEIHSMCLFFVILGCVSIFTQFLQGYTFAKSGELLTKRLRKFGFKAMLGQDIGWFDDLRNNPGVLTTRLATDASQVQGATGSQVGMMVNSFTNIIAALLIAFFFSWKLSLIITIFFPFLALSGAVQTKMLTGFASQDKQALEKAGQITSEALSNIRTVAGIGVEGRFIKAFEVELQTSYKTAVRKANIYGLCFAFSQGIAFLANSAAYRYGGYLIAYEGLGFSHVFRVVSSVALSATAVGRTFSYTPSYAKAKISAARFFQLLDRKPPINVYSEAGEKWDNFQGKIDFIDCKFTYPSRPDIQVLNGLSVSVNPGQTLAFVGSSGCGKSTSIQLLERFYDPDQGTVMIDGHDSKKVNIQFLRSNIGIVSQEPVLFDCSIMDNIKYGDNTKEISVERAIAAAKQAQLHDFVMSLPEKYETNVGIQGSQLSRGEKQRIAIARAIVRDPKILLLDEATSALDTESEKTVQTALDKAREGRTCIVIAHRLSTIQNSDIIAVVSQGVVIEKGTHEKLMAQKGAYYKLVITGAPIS

Bile salt export pump [2] = target: T1, Bile salt export pump; test: TP_TRANSPORTER: Northern blot from primary hepatocytes; assay type: functional, cell-based, Sprague-Dawley, Hepatocyte

Activity (Bile salt export pump [1]): inducer [+] | Activity (Bile salt export pump [2]): inducer [+]
Compound: C[C@@H]1C[C@H]2[C@@H]3CCC4=CC(=O)C=C[C@]4(C)[C@@]3(F)[C@@H](O)C[C@]2(C)[C@@]1(O)C(=O)CO [DEXAMETHASONE]
